Data: patent publication US11306066B2, “4H-pyran compounds as insulin-regulated aminopeptidase (IRAP) inhibitors” (Monash University, priority 2015, dated 2022)

Tested on: primary cultures of rat hippocampal neurons
Assay: In vitro hippocampal spine density
Type: cell-based
Details: chronic treatment (3 doses of 10^−5M), days 14, 17 and 20; FIG. 1
Source text: In Vitro Hippocampal Spine Density
Dendritic spines are a complex, distinct cellular compartment that protrude from neuronal processes, and act as a source of synaptic contact vital for plasticity, signalling and neuronal integration. Hippocampal spine density increases in the rat brain after learning of an associative task, thereby acting as a substrate for the new memories. Drugs that enhance actin reorganisation in dendritic spines, a requirement for stabilisation of memory, have been proposed for the treatment of memory disorders.
Hippocampi from E18 rat pups were dissected into cold Hank's Basic Salt Solution, rinsed three times and incubated in 5 ml of 0.12% w/v trypsin and 40 μg/ml DNAse (Sigma-Aldrich, St. Louis, USA) for 20 minutes at 37° C. Clumped cells were triturated for one minute with a sterile 1 ml pipette. […] Cell density in a 1/10 dilution was measured using a haemocytometer. […]
For immunohistochemical staining of spines, coverslips were removed from plates and washed in PBS, then incubated in PBSX for 15 minutes to permeabilise membranes. […] Spines highlighted by drebrin immunostaining were counted in Image J. Single neurites were identified and all spines along a fifty micron segment were counted. […]

Structure (SMILES): CC(=O)C1=C(C)OC(N)=C(C#N)C1c1ccc(C(=O)O)cc1.N (stereo not shown) [Test Compound 1]
- dendritic spine densities: statistically significant increases
